Structures can show the parent of a compound that is named as a salt.
Assays:
[1] = target: T1, human recombinant 5-HT2B receptor (Homo sapiens, UniProt P41595); assay: Affinity for 5-HT2B receptor binding sites (competitive radioligand binding, [3H]mesulergine); conditions: membranes of CHO with h5-HT2B, * = tested as hydrochloride salt
T1 construct: expressed in transfected cells; host or cells: CHO
In short: (§1)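 Membranes from NIH3T3 cells stably expressing h5-HT2A or CHO cells stably expressing h5-HT2B/h5-HT2C; [3H]ketanserin used for 5-HT2A, [3H]mesulergine for 5-HT2B/2C. Compounds from 10 mM DMSO stocks, final DMSO ≤0.4%. Affinity from sigmoidal inhibition curves fitted by nonlinear regression.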

[2] = target: T2, human recombinant 5-HT6 receptor (Homo sapiens, UniProt P50406); assay: Affinity for 5-HT6 receptor binding sites (competitive radioligand binding, [3H]LSD); conditions: membranes of HEK-293 with h5-HT6, * = tested as hydrochloride salt
T2 construct: expressed in transfected cells; host or cells: HEK-293
T2 sequence (P50406 whole entry): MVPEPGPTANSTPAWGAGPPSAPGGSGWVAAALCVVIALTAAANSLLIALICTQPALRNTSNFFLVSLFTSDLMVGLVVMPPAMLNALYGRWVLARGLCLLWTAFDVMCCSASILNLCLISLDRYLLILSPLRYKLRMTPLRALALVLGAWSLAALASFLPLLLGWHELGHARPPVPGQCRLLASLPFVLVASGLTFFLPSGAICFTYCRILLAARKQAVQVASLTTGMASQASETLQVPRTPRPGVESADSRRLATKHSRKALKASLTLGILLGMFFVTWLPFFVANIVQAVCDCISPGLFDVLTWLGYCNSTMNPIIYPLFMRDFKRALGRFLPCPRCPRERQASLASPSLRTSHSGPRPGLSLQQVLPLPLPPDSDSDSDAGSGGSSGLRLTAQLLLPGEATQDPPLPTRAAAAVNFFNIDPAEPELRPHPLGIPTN
In short: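 Membranes from HEK-293 cells stably expressing human 5-HT6, competition against [3H]LSD; nonspecific binding defined with 1 μM clozapine. DMSO ≤0.4% final. Inhibition curves fitted by nonlinear regression.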

[3] = target: T3, human recombinant 5-HT2C receptor (Homo sapiens, UniProt P28335); assay: Affinity for 5-HT2C receptor binding sites (competitive radioligand binding, [3H]mesulergine); conditions: membranes of CHO with h5-HT2C, * = tested as hydrochloride salt
T3 construct: expressed in transfected cells; host or cells: CHO
T3 sequence (P28335 33-458): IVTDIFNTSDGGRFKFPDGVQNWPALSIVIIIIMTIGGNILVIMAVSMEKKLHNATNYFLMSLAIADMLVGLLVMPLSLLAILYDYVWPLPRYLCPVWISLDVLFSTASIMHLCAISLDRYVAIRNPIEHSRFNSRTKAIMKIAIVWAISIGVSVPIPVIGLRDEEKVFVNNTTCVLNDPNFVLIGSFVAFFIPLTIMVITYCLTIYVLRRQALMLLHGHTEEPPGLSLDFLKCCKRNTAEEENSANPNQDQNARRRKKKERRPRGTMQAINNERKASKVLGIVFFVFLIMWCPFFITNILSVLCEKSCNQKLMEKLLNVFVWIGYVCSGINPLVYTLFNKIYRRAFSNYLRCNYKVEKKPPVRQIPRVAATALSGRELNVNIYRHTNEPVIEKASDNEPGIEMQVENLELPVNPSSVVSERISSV
In short: as §1

[4] = target: T4, human recombinant 5-HT2A receptor (Homo sapiens, UniProt P28223); assay: Affinity for 5-HT2A receptor binding sites (competitive radioligand binding, [3H]ketanserin); conditions: membranes of NIH3T3 with h5-HT2A, * = tested as hydrochloride salt
T4 construct: expressed in transfected cells; host or cells: NIH3T3
T4 sequence (P28223 whole entry): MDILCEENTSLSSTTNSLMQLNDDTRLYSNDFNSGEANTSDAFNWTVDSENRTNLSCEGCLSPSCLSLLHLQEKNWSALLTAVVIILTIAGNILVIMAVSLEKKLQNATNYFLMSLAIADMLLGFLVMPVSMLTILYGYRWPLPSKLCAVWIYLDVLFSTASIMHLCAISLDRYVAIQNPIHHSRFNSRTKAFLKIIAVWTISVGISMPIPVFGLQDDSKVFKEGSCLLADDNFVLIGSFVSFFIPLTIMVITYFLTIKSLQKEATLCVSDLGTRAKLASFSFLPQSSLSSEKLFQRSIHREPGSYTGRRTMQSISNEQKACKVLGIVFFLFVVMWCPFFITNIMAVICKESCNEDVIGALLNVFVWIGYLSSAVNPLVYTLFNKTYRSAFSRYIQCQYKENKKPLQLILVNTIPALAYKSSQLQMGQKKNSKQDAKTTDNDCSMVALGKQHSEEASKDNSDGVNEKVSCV
In short: as §1

[5] = target: T5, rat 5-HT7a receptor (Rattus norvegicus, UniProt P32305); assay: Affinity for 5-HT7 receptor binding sites (competition radioligand binding, [3H]5-CT); conditions: membranes of HEK-293 cells with rat 5-HT7a; 1 nM [3H]5-CT; * = tested as hydrochloride salt
T5 construct: expressed in transfected cells; host or cells: HEK-293
T5 sequence (P32305 whole entry): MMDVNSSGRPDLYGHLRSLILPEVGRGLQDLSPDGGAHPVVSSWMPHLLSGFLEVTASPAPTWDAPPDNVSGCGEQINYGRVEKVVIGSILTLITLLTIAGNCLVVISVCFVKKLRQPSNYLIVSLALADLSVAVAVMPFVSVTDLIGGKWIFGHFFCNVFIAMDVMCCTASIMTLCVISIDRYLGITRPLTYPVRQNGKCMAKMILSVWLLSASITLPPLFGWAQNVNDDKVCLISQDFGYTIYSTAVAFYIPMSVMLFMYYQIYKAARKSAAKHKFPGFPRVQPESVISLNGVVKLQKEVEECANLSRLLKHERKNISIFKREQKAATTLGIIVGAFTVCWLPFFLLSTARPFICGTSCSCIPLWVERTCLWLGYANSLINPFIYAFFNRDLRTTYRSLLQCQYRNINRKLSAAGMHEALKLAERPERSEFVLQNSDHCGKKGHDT
Protocol: Stock drug solutions (10 mM) were prepared in DMSO (the final assay concentration of DMSO not exceeding 0.4%). Drug dilutions were prepared in assay buffer.
Sigmoidal inhibition curves were generated and fitted by nonlinear regression analysis (GraphPad Prism).
1. Affinity for 5-HT7 Receptor Binding Sites
The affinity of the compounds described in this invention for the 5-HT7 receptor binding site was evaluated by single competition radioligand binding assay. The assay was performed on membranes prepared from HEK-293 cells that had been subjected to stable transfection with the rat 5-HT7a receptor (GB: NM022938). Cells were scraped from the culture plates, suspended in Tris-HCl 50 mM pH 7.5 and collected through centrifugation (1000 rpm for 5 min). The cell pellets were homogenized (Polytron, 15 s, setting 5) in 50 mM Tris-HCl (pH 7.5), 5 mM EDTA. Following centrifugation (15,000 rpm for 25 min), membranes (135 μg protein/mL) were resuspended in the same buffer and incubated for 60 min at RT with 1 nM [^3H]5-CT in the presence of increasing concentration of test compounds. Nonspecific binding was defined in the presence of 10 μM 5-HT. Incubation was stopped by rapid filtration using the cell harvester (Packard). Radioactivity was counted in a TopCount-NXT (Packard). Experiments were conducted in triplicate.

T1 sequence (P41595 whole entry): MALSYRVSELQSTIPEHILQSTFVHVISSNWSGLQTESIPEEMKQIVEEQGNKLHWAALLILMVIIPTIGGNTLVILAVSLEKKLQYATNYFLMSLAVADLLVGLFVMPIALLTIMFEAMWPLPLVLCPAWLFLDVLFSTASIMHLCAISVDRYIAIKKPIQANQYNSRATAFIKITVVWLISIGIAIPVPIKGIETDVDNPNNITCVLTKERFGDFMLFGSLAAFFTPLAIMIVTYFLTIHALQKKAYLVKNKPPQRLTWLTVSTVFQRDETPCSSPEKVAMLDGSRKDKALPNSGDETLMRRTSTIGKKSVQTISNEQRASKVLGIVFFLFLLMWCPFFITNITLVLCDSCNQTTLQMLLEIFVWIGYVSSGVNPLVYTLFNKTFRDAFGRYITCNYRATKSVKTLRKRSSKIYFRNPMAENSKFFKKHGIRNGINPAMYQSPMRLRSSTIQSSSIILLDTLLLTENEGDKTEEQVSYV

Row | SMILES | Ki [1] [nM] | Ki [2] [nM] | Ki [3] [nM] | Ki [4] [nM] | Ki [5] [nM]
1 | CCN(CC)c1nc2c(c(-c3ccc(OC)cc3)n1)CCCNC2 [Example 3, Diethyl-[4-(4-methoxy-phenyl)-6,7,8,9-tetrahydro-5H-pyrimido[4,5-c]azepin-2-yl]-amine] | 20 | 160 | 400 | 200 | 240
2 | CCN(CC)c1nc2c(c(-c3ccc(C#N)cc3)n1)CCCNC2 [Example 4, 4-(2-Diethylamino-6,7,8,9-tetrahydro-5H-pyrimido[4,5-c]azepin-4-yl)-benzonitrile] | 100 | 3750 | 9000 | 240 | 920
3 | COc1ccc(-c2nc(N3CCCCC3C)nc3c2CCCNC3)cc1 (centres unmarked) [Example 5, 4-(4-Methoxy-phenyl)-2-(2-methyl-piperidin-1-yl)-6,7,8,9-tetrahydro-5H-pyrimido[4,5-c]azepine hydrochloride] | 200 | 127 | 1800 | 1500 | > 10000
4 | CC1CCCCN1c1nc2c(c(-c3ccc(F)cc3)n1)CCCNC2 (centres unmarked) [Example 6, 4-(4-Fluoro-phenyl)-2-(2-methyl-piperidin-1-yl)-6,7,8,9-tetrahydro-5H-pyrimido[4,5-c]azepine] | 200 | 310 | 1000 | 200 | > 10000
5 | CC1CCCCN1c1nc2c(c(-c3ccc(C#N)cc3)n1)CCCNC2 (centres unmarked) [Example 7, 4-[2-(2-Methyl-piperidin-1-yl)-6,7,8,9-tetrahydro-5H-pyrimido[4,5-c]azepin-4-yl]-benzonitrile] | 280 | 1240 | 3200 | 400 | > 10000
6 | Cc1ccc(-c2nc(N3CCCCC3C)nc3c2CCCNC3)cc1 (centres unmarked) [Example 8, 2-(2-Methyl-piperidin-1-yl)-4-p-tolyl-6,7,8,9-tetrahydro-5H-pyrimido[4,5-c]azepine] | 100 | 68 | 2000 | 180 | 500
7 | CCN(CC)c1nc2c(c(-c3ccc(F)cc3)n1)CCNCC2 [Example 9, Diethyl-[4-(4-fluoro-phenyl)-6,7,8,9-tetrahydro-5H-pyrimido[4,5-d]azepin-2-yl]-amine hydrochloride] | 7 | 84 | 40 | 20 | 29
8 | CCN(CC)c1nc2c(c(-c3ccncc3)n1)CCNCC2 [Example 10, Diethyl-(4-pyridin-4-yl-6,7,8,9-tetrahydro-5H-pyrimido[4,5-d]azepin-2-yl)-amine hydrochloride] | 50 | 1460 | > 10000 | 500 | 1200
9 | CCN(CC)c1nc2c(c(-c3ccc(C)cc3)n1)CCNCC2 [Example 11, Diethyl-(4-p-tolyl-6,7,8,9-tetrahydro-5H-pyrimido[4,5-d]azepin-2-yl)-amine hydrochloride] | 5 | 25 | 63 | 4 | 40
10 | CCN(CC)c1nc2c(c(-c3ccsc3)n1)CCNCC2 [Example 12, Diethyl-(4-thiophen-3-yl-6,7,8,9-tetrahydro-5H-pyrimido[4,5-d]azepin-2-yl)-amine hydrochloride] | 3.2 | 80 | 50 | 30 | 40
11 | CCN(CC)c1nc2c(c(-c3ccc(OC)cc3)n1)CCNCC2 [Example 13, Diethyl-[4-(4-methoxy-phenyl)-6,7,8,9-tetrahydro-5H-pyrimido[4,5-d]azepin-2-yl]-amine hydrochloride] | 0.8 | 28 | 40 | 10 | 32
12 | CCN(CC)c1nc2c(c(-c3ccc(C#N)cc3)n1)CCNCC2 [Example 14, 4-(2-Diethylamino-6,7,8,9-tetrahydro-5H-pyrimido[4,5-d]azepin-4-yl)-benzonitrile hydrochloride] | 5 | 220 | 130 | 40 | 63
13 | CCN(CC)c1nc2c(c(-c3ccc(F)cc3)n1)CCNC2 [Example 24, Diethyl-[4-(4-fluoro-phenyl)-5,6,7,8-tetrahydro-pyrido[3,4-d]pyrimidin-2-yl]-amine] | 7 | 933 | 120 | 3 | 50
14 | CCN(CC)c1nc2c(c(-c3ccc(C)cc3)n1)CCNC2 [Example 26, Diethyl-(4-p-tolyl-5,6,7,8-tetrahydro-pyrido[3,4-d]pyrimidin-2-yl)-amine] | 13 | 316 | 200 | 7 | 100
15 | CCN(CC)c1nc2c(c(-c3ccc(OC)cc3)n1)CCNC2 [Example 28, Diethyl-[4-(4-methoxy-phenyl)-5,6,7,8-tetrahydro-pyrido[3,4-d]pyrimidin-2-yl]-amine] | 15 | 1510 | 280 | 70 | 130
16 | CCN(CC)c1nc2c(c(-c3ccc(C#N)cc3)n1)CCNC2 [Example 30, 4-(2-Diethylamino-5,6,7,8-tetrahydro-pyrido[3,4-d]pyrimidin-4-yl)-benzonitrile] | 60 | 3720 | 1400 | 48 | 300
17 | CC1CCCN1c1nc2c(c(-c3ccc(F)cc3)n1)CNCC2 (centres unmarked) [Example 38, 4-(4-Fluoro-phenyl)-2-(2-methyl-pyrrolidin-1-yl)-5,6,7,8-tetrahydro-pyrido[4,3-d]pyrimidine hydrochloride] | 50 | 1950 | 65 | 1.9 | > 10000
18 | Fc1ccc(-c2nc(N3CCOCC3)nc3c2CNCC3)cc1 [Example 42, 4-(4-Fluoro-phenyl)-2-morpholin-4-yl-5,6,7,8-tetrahydro-pyrido[4,3-d]pyrimidine] | 2050 | 9770 | 500 | 20 | > 10000
19 | CC(C)N(c1nc2c(c(-c3ccc(F)cc3)n1)CNCC2)C(C)C [Example 43, [4-(4-Fluoro-phenyl)-5,6,7,8-tetrahydro-pyrido[4,3-d]pyrimidin-2-yl]-diisopropyl-amine hydrochloride] | 100 | 195 | 150 | 3 | 320
20 | C[C@H]1COCCN1c1nc2c(c(-c3ccc(F)cc3)n1)CNCC2 [Example 45, 4-(4-Fluoro-phenyl)-2-(3-methyl-morpholin-4-yl)-5,6,7,8-tetrahydro-pyrido[4,3-d]pyrimidine] | 1200 | 3390 | 2500 | 24 | > 10000
21 | CCNc1nc2c(c(-c3ccc(C)cc3)n1)CNCC2 [Example 48, Ethyl-(4-p-tolyl-5,6,7,8-tetrahydro-pyrido[4,3-d]pyrimidin-2-yl)-amine] | 3000 | > 10000 | > 10000 | 2000 | > 10000
22 | Cc1ccc(-c2nc(N3CCOCC3)nc3c2CNCC3)cc1 [Example 49, 2-Morpholin-4-yl-4-p-tolyl-5,6,7,8-tetrahydro-pyrido[4,3-d]pyrimidine] | 5010 | 2090 | 630 | 100 | 530
